Data on twelve molecules can be found in patent publication US11951190B2, “Use of labeled inhibitors of prostate specific membrane antigen (PSMA), as agents for the treatment of prostate cancer” (DEUTSCHES KREBSFORSCHUNGSZENTRUM, priority 2013, dated 2024).

The target in series [1] is T1, PSMA expressing cell line LNCaP (Homo sapiens, UniProt Q04609).
T1 construct: using the PSMA expressing cell line LNCaP; host or cells: LNCaP
The series is described as follows: Competitive cell binding assay (68Ga-labeled [Glu-urea-Lys(Ahx)]2-HBED-CC radioligand). The conditions noted are these: LNCaP cells, competition with 68Ga-labeled [Glu-urea-Lys(Ahx)]2-HBED-CC. On the procedure: (§1) In order to compare the series of novel compounds the competitive binding affinity and the specific internalization was analyzed using the PSMA expressing cell line LNCaP. To determine specific cellular uptake, cells were blocked with 2-(phosphonomethyl)-pentanedioic acid (PMPA). The inhibition potency was also investigated by the enzyme-based NAALADase assay.
(§2) For binding studies and in vivo experiments LNCaP cells (metastatic lesion of human prostatic adenocarcinoma, ATCC CRL-1740) were cultured in RPMI medium supplemented with 10% fetal calf serum and Glutamax (PAA, Austria). During cell culture, cells were grown at 37° C. in an incubator with humidified air, equilibrated with 5% CO2. The cells were harvested using trypsin-ethylenediaminetetraacetic acid (trypsin-EDTA; 0.25% trypsin, 0.02% EDTA, all from PAA, Austria) and washed with PBS.
The competitive cell binding assay and internalization experiments were performed as described previously (Eder et al. 2012).

For series [2], the system named is LNCaP tumor xenografts. The series is described as follows: Dynamic microPET imaging. To be noted: 68Ga-labeled. In kind it is in vivo, athymic male nude mice. The method, then: Whole-body coronal microPET images of an athymic male nude mice bearing LNCaP tumor xenografts. […] Approximately 15 MBq/mouse were injected. […] The values are expressed as mean SUV (standardized uptake values).
For the microPET studies, 10-25 MBq of the radiolabeled compounds in a volume of 0.15 ml (˜0.5 nmol) were injected via a lateral tail vein into mice bearing LNCaP tumor xenografts. The anesthetized animals (2% sevoflurane, Abbott, Wiesbaden, Germany) were placed in prone position into the Inveon small animal PET scanner (Siemens, Knoxville, Tn., USA) to perform dynamic microPET scans and 20 min-static scans; c.f. FIG. 1, 3, 5-14

Series [3] relates to LNCaP tumor xenografts. The series is described as follows: Biodistribution / organ distribution in LNCaP tumor-bearing mice. In kind it is in vivo, BALB/c nu/nu mice. The conditions noted are these: for PSMA-specific uptake (organ distribution): 68Ga labeled, 1 h post injection of 0.06 nmol, blocking with 2 mg/kg 2-PMPA. The method, then:
FIG. 2: Organ Distribution at 1 h post injection. […] Data are expressed as mean % ID/g tissue±SD (n=3).
The favourable pharmacokinetics led to extremely high tumor-to-background ratios (Tumor/Blood: 1058; Tumor/Muscle: 529) after 24 hours
7- to 8-week-old male BALB/c nu/nu mice (Charles River Laboratories) were subcutaneously inoculated into the right trunk with 5×10^6 cells of LNCaP (in 50% Matrigel; Becton Dickinson, Heidelberg, Germany). The tumors were allowed to grow until approximately 1 cm3 in size. The radiolabeled compounds were injected into the tail vein (approx. 1 MBq per mouse; 0.06 nmol). […] Organs of interest were dissected, blotted dry, and weighed. The radioactivity was measured using a gamma counter and calculated as % ID/g.

Another series deals with LNCaP cells. In words: Specific cell uptake and internalization. In kind it is cell-based, human. The conditions noted are these: 45 min. On the procedure:
as §1, §2
To determine the specific cell uptake and internalization, 10^5 cells were seeded in poly-L-lysine coated 24-well cell culture plates 24 h before incubation. After washing, the cells were incubated with 25 nM of the radiolabeled compounds for 45 min at 37° C. and at 4° C., respectively. Specific cellular uptake was determined by competitive blocking with 2-(phosphonomethyl)pentanedioic acid (500 μM final concentration, PMPA, Axxora, Loerrach, Germany). Cellular uptake was terminated by washing 4 times with 1 mL of ice-cold PBS. Cells were subsequently incubated twice with 0.5 mL glycine-HCl in PBS (50 mM, pH=2.8) for 5 min to remove the surface-bound fraction. The cells were washed with 1 mL of ice-cold PBS and lysed using 0.3 N NaOH (0.5 mL). The surface-bound and the internalized fractions were measured in a gamma counter. The cell uptake was calculated as percent of the initially added radioactivity bound to 10^6 cells [% ID/10^6 cells].

Setting [4] is: 177Lu-labeled, 24 h post injection of 0.06 nmol, n=5.
Where [5] appears, read: for Ga-68, 25 nM radiolabeled compound.

T1 sequence (Q04609 whole entry): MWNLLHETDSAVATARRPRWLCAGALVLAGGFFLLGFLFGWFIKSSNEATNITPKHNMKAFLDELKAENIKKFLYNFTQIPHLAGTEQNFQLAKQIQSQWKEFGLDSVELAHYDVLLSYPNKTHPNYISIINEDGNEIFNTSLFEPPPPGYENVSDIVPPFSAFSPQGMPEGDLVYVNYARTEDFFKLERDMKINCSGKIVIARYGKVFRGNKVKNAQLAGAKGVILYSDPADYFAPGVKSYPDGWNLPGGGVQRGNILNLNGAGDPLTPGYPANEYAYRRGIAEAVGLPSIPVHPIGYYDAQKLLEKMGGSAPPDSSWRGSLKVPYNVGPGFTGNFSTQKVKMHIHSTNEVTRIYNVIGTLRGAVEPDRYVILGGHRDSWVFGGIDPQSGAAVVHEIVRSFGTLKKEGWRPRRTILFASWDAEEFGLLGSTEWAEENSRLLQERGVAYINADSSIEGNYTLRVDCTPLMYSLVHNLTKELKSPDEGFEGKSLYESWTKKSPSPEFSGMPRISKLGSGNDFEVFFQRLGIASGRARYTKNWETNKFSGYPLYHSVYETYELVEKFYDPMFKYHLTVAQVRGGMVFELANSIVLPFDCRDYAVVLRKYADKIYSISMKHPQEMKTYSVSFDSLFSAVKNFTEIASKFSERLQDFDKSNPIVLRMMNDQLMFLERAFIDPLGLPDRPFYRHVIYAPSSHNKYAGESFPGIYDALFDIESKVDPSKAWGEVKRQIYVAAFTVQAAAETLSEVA

Turning to `O=C(O)CCC(NC(=O)NC(CCCCNC(=O)C(Cc1ccc2ccccc2c1)NC(=O)CCCCCNC(=O)CN1CCN(CC(=O)O)CCN(CC(=O)O)CCN(CC(=O)O)CC1)C(=O)O)C(=O)O` (stereo not drawn) [MB25], the 50% inhibitory concentration (IC50) in series [1] came out at 6.64 nM.

Take `O=C(O)CC[C@H](NC(=O)N[C@@H](CCCCNC(=O)[C@H](Cc1ccc2ccccc2c1)NC(=O)[C@H]1CC[C@H](CNC(=O)CN2CCN(CC(=O)O)CCN(CC(=O)O)CCN(CC(=O)O)CC2)CC1)C(=O)O)C(=O)O` [MB17]: the “background clearance and kidney enrichment in PET diagrams” value in the series on LNCaP tumor xenografts [2] (after 2 hours) is given as “rapid background clearance as well as a substantial reduction of the enrichment in the kidney”. Further, in the series with LNCaP tumor xenografts [2] (dynamic PET, after injection of the radiotracer), the “time of maximum kidney uptake (highest point in the time-activity-curve)” value is 15 min. For the same molecule, the “PSMA-specific uptake (organ distribution)” value in the series with LNCaP tumor xenografts [3] (2 mg/kg) is “PSMA-specific uptake in the tumor and the kidneys”. Further, the “PSMA-specific uptake (organ distribution)” value with LNCaP tumor xenografts [3] (listed as MB 17, 2 mg/kg) is recorded as “high PSMA-specific tumor uptake”. Moreover, in the series with LNCaP tumor xenografts [3] (setting [4]), the kidney uptake worked out at 2.13±1.36 % ID/g, the liver uptake is reported as 0.08±0.03 % ID/g, the lung uptake was found to be 0.11±0.13 % ID/g and the spleen uptake is on record as 0.13±0.05 % ID/g. In addition, the tumor uptake in the series on LNCaP tumor xenografts [3] (setting [4]) stood at 10.58±4.50 % ID/g. The Internalization in the series on LNCaP cells (setting [5]) was determined as 17.02 ± 4.36 for Ga-68 % IA/10^6 cells. The Internalization with LNCaP cells (for Lu-177, 25 nM radiolabeled compound) is 17.51 ± 3.99 for Lu-177 % IA/10^6 cells.

In series [1], `O=C(O)CCC(NC(=O)NC(CCCCNC(=O)C1CCC(CNC(=O)CN2CCN(CC(=O)O)CCN(CC(=O)O)CCN(CC(=O)O)CC2)CC1)C(=O)O)C(=O)O` (stereo not drawn) [MB22] showed an IC50 of 52.8 nM.

Turning to `O=C(O)CCC(NC(=O)NC(CCCCNC(=O)c1ccc(CNC(=O)c2ccc(CNC(=O)c3ccc(CNC(=O)c4ccc(CNC(=O)CN5CCN(CC(=O)O)CCN(CC(=O)O)CCN(CC(=O)O)CC5)cc4)cc3)cc2)cc1)C(=O)O)C(=O)O` (stereo not drawn) [MB10], the concentration for half-maximal inhibition (IC50) in series [1] came to 8.67 ± 1.58 nM.

`O=C(O)CC[C@H](NC(=O)N[C@@H](CCCCNC(=O)C1CCC(CNC(=O)c2ccc(CNC(=O)CN3CCN(CC(=O)O)CCN(CC(=O)O)CCN(CC(=O)O)CC3)cc2)CC1)C(=O)O)C(=O)O` (stereo partly drawn) [MB33]: the IC50 in series [1] was 59.3 nM.

`O=C(O)CC[C@H](NC(=O)N[C@@H](CCCCNC(=O)c1ccc(CNC(=O)c2ccc(CNC(=O)c3ccc(CNC(=O)CN4CCN(CC(=O)O)CCN(CC(=O)O)CCN(CC(=O)O)CC4)cc3)cc2)cc1)C(=O)O)C(=O)O` [MB4] displayed an IC50 in series [1] of 0.74 ± 0.5 nM. In the series on LNCaP cells (setting [5]), the Internalization is 14.18 ± 0.98 for Ga-68 % IA/10^6 cells.

Regarding `O=C(O)CCC(NC(=O)NC(CCCCNC(=O)c1ccc(CNC(=O)CN2CCN(CC(=O)O)CCN(CC(=O)O)CCN(CC(=O)O)CC2)cc1)C(=O)O)C(=O)O` (stereo not drawn) [MB2], in series [1], the 50% inhibitory concentration (IC50) was 2.75 ± 0.82 nM. The Internalization with LNCaP cells (setting [5]) amounted to 8.78 ± 3.96 for Ga-68 % IA/10^6 cells.

In turn, `O=C(O)CC[C@H](NC(=O)N[C@@H](CCCCNC(=O)C1CCC(CNC(=O)C(Cc2ccc3ccccc3c2)NC(=O)CN2CCN(CC(=O)O)CCN(CC(=O)O)CCN(CC(=O)O)CC2)CC1)C(=O)O)C(=O)O` (stereo partly drawn) [MB35] yielded a 50% inhibitory concentration (IC50) in series [1] of 26.2 nM.

In series [1], `O=C(O)CC[C@H](NC(=O)N[C@@H](CCCCNC(=O)[C@@H](Cc1ccc2ccccc2c1)NC(=O)[C@H]1CC[C@H](CNC(=O)CN2CCN(CC(=O)O)CCN(CC(=O)O)CCN(CC(=O)O)CC2)CC1)C(=O)O)C(=O)O` [MB17.D] showed a half-maximal inhibitory concentration (IC50) of 12.4 ± 5.1 nM.

Molecule `O=C(O)CCC(NC(=O)NC(CCCCNC(=O)c1ccc(CNC(=O)c2ccc(CNC(=O)CN3CCN(CC(=O)O)CCN(CC(=O)O)CCN(CC(=O)O)CC3)cc2)cc1)C(=O)O)C(=O)O` (stereo not drawn) [MB3] returned an IC50 in series [1] of 10.5 ± 6.06 nM.

`O=C(O)CC[C@H](NC(=O)N[C@@H](CCCCNC(=O)C1CCC(CNC(=O)C2CCC(CNC(=O)CN3CCN(CC(=O)O)CCN(CC(=O)O)CCN(CC(=O)O)CC3)CC2)CC1)C(=O)O)C(=O)O` (stereo partly drawn) [MB31] gave a concentration for half-maximal inhibition (IC50) in series [1] of 91.8 nM.

Molecule `O=C(O)CCC(NC(=O)NC(CCCCNC(=O)C(Cc1ccc2ccccc2c1)NC(=O)c1ccc(CNC(=O)CN2CCN(CC(=O)O)CCN(CC(=O)O)CCN(CC(=O)O)CC2)cc1)C(=O)O)C(=O)O` (stereo not drawn) [MB24] yielded a half-maximal inhibitory concentration (IC50) in series [1] of 3.33 nM.
